Data: patent US7691889B2, “Antimycobacterial compounds” (Lupin Limited, priority 2002, dated 2010)
In brackets after ≈: the same amount, converted by molar mass. Read-outs that look alike come from different tables or passages of the source.

Experiments:
M. tuberculosis 27294 = experiment: In vitro agar dilution assay (MIC), reference strain; format: cell-based, Mycobacterium tuberculosis; conditions: for MIC: Mycobacterium tuberculosis, 27294, Middlebrook 7H10, read-out: MIC against M. tuberculosis 27294; for MIC against M. tuberculosis 27294: Middlebrook 7H10
[1] = tested on: M. tuberculosis clinical isolates, sensitive; experiment: microbe, parasite or virus in culture; format: cell-based, Mycobacterium tuberculosis; conditions: for MIC: Mycobacterium tuberculosis; for MIC against Clinical isolates Sensitive: Table I, agar dilution
M. fortuitum = experiment: In vitro agar dilution assay (MIC), M. fortuitum; format: cell-based; conditions: Table II
M. kansai = experiment: In vitro agar dilution assay (MIC), M. kansai; format: cell-based; conditions: Table II
[2] = tested on: M. tuberculosis ATCC 27294 infection; experiment: Murine model of pulmonary tuberculosis; conditions: for Mean Log10 No. of CFU Lung / Mean Log10 No. of CFU Spleen: 5 day/week for 4 weeks, mice; for Mean Log10 No. of reduction Lung / Mean Log10 No. of reduction Spleen: difference from early controls
Acute toxicity in mice = format: in vivo; conditions: P. O.
[3] = read-out: MIC against Clinical isolates Sensitive

NNC(=O)c1ccncc1 [Isoniazid, reference compound]
MIC (M. tuberculosis 27294): 0.25 mg/L (≈ 1.82 µM) | MIC ([1]; read-out: MIC M. tuberculosis Sensitive): 0.25 mg/L (≈ 1.82 µM) | MIC [1, 3]: 0.12 to 0.25 mg/L (≈ 0.875 to 1.82 µM) | MIC (M. fortuitum; Mycolicibacterium fortuitum): > 16 mg/L | MIC (M. kansai): > 16 mg/L | Mean Log10 No. of CFU Lung ([2]; 12.5 mg/kg by gavage): 2.95 | Mean Log10 No. of CFU Spleen ([2]; 12.5 mg/kg by gavage): 2.94 | Mean Log10 No. of reduction Lung ([2]; 12.5 mg/kg): 1.57 | Mean Log10 No. of reduction Spleen ([2]; 12.5 mg/kg): 1.68 | Mean Log10 No. of CFU Lung ([2]; 25 mg/kg by gavage): 2.11 | Mean Log10 No. of CFU Spleen ([2]; 25 mg/kg by gavage): 2.11 | Mean Log10 No. of reduction Lung ([2]; 25 mg/kg): 2.41 | Mean Log10 No. of reduction Spleen ([2]; 25 mg/kg): 2.51 | Mean Log10 No. of CFU Lung ([2]; 50 mg/kg by gavage): 2.03 | Mean Log10 No. of CFU Spleen ([2]; 50 mg/kg by gavage): 1.92 | Mean Log10 No. of reduction Lung ([2]; 50 mg/kg): 2.49 | Mean Log10 No. of reduction Spleen ([2]; 50 mg/kg): 2.70

O=C(CCC(=O)c1ccc2ccccc2c1)NC[C@H]1CN(c2ccc([N+]3([O-])CCOCC3)c(F)c2)C(=O)O1 [Compound 30, (S)-N-[[3-(3-fluoro-4-morpholinylphenyl)-2-oxo-5-oxazolidinyl]methyl]-4-(4-2-naphthyl)-4-oxobutanamide-N-oxide]
MIC against M. tuberculosis 27294 (M. tuberculosis 27294): 0.5 mg/L (≈ 0.959 µM) | MIC against Clinical isolates Sensitive [1]: 0.5 mg/L (≈ 0.959 µM) | MIC M. tuberculosis Sensitive ([1]; Table II): 0.50 mg/L (≈ 0.959 µM) | MIC M. fortuitum (M. fortuitum): >16.0 mg/L | MIC M. kansai (M. kansai): 8.0 mg/L (≈ 15.3 µM) | LD0 (acute toxicity) (Acute toxicity in mice): > 1000 mg/kg | Mean Log10 No. of CFU Lung ([2]; 12.5 mg/kg by gavage): 4.34 | Mean Log10 No. of CFU Spleen ([2]; 12.5 mg/kg by gavage): 4.30 | Mean Log10 No. of reduction Lung ([2]; 12.5 mg/kg): 0.20 | Mean Log10 No. of reduction Spleen ([2]; 12.5 mg/kg): 0.26 | Mean Log10 No. of CFU Lung ([2]; 25 mg/kg by gavage): 2.21 | Mean Log10 No. of CFU Spleen ([2]; 25 mg/kg by gavage): 2.13 | Mean Log10 No. of reduction Lung ([2]; 25 mg/kg): 2.30 | Mean Log10 No. of reduction Spleen ([2]; 25 mg/kg): 2.49 | Mean Log10 No. of CFU Lung ([2]; 50 mg/kg by gavage): 2.12 | Mean Log10 No. of CFU Spleen ([2]; 50 mg/kg by gavage): 2.09 | Mean Log10 No. of reduction Lung ([2]; 50 mg/kg): 2.40 | Mean Log10 No. of reduction Spleen ([2]; 50 mg/kg): 2.53

O=C(CCC(=O)c1cccs1)NC[C@H]1CN(c2ccc([N+]3([O-])CCOCC3)c(F)c2)C(=O)O1 [Compound 31, (S)-N-[[3-(3-fluoro-4-morpholinylphenyl)-2-oxo-5-oxazolidinyl]methyl]-4-oxo-4-(2-thienyl)butanamide-N-oxide]
MIC against M. tuberculosis 27294 (M. tuberculosis 27294): 1 mg/L (≈ 2.09 µM) | MIC against Clinical isolates Sensitive [1]: 1 to 2 mg/L

O=C(CCC(=O)c1cccs1)NC[C@H]1CN(c2ccc(N3CCCCC3)c(F)c2)C(=O)O1 [Compound 52, (S)-N-[[3-(3-fluoro-4-piperidylphenyl)-2-oxo-5-oxazolidinyl]methyl]-4-oxo-4-(2-thienyl)butanamide]
MIC against M. tuberculosis 27294 (M. tuberculosis 27294): 2 mg/L (≈ 4.35 µM) | MIC against Clinical isolates Sensitive [1]: 2 mg/L (≈ 4.35 µM)

CCCc1ccc(C(=O)CCC(=O)NC[C@H]2CN(c3ccc(-c4nc[nH]n4)c(F)c3)C(=O)O2)c(C)c1 [Compound 46, (S)-N-[[3-(3-fluoro-4-(1,2,4-triazolyl)phenyl)-2-oxo-5-oxazolidinyl]methyl]-4-(2′-methyl-4-propylphenyl)-4-oxobutanamide]
MIC (M. tuberculosis 27294): 2 mg/L (≈ 4.05 µM) | MIC [1, 3]: 2 to 4 mg/L (≈ 4.05 to 8.1 µM)

O=C(CCC(=O)c1ccc(Cl)cc1)NC[C@H]1CN(c2ccc(N3CCCCC3)c(F)c2)C(=O)O1 [Compound 36, (S)-N-[[3-(3-fluoro-4-piperidylphenyl)-2-oxo-5-oxazolidinyl]methyl]-4-(4-chlorophenyl)-4-oxobutanamide]
MIC against M. tuberculosis 27294 (M. tuberculosis 27294): 4 mg/L (≈ 8.2 µM) | MIC against Clinical isolates Sensitive [1]: 4 to 8 mg/L

CSc1ccc(C(=O)CCC(=O)NC[C@H]2CN(c3ccc(-n4cncn4)c(F)c3)C(=O)O2)cc1 [Compound 44, (S)-N-[[3-(3-fluoro-4-(1,2,4-triazolyl)phenyl)-2-oxo-5-oxazolidinyl]methyl]-4-oxo-4-(4-thiomethylphenyl)butanamide]
MIC against M. tuberculosis 27294 (M. tuberculosis 27294): 1 mg/L (≈ 2.07 µM) | MIC against Clinical isolates Sensitive [1]: 0.5 to 2 mg/L

O=C(C=CC(=O)c1ccccc1)NC[C@H]1CN(c2ccc(N3CCCCC3)c(F)c2)C(=O)O1 [Compound 55, (S)-N-[[3-(3-fluoro-4-piperidylphenyl)-2-oxo-5-oxazolidinyl]methyl]-4-oxo-4-phenylbut-2-enamide]
MIC against M. tuberculosis 27294 (M. tuberculosis 27294): >16 mg/L | MIC against Clinical isolates Sensitive [1]: >16 mg/L

O=C(CCC(=O)c1ccc(Cl)cc1)NC[C@H]1CN(c2ccc([N+]3([O-])CCOCC3)c(F)c2)C(=O)O1 [Compound 32, (S)-N-[[3-(3-fluoro-4-morpholinylphenyl)-2-oxo-5-oxazolidinyl]methyl]-4-(4-chlorophenyl)-4-oxobutanamide-N-oxide]
MIC against M. tuberculosis 27294 (M. tuberculosis 27294): 0.25 mg/L (≈ 0.494 µM) | MIC against Clinical isolates Sensitive [1]: 0.25 to 0.5 mg/L

O=C(CCC(=O)c1ccc(Cl)cc1)NC[C@H]1CN(c2ccc(N3CCOCC3)c(F)c2)C(=O)O1 [Compound 14, (S)-N-[[3-(3-fluoro-4-morpholinylphenyl)-2-oxo-5-oxazolidinyl]methyl]-4-(4-chlorophenyl)-4-oxobutanamide]
MIC against M. tuberculosis 27294 (M. tuberculosis 27294): 0.25 mg/L (≈ 0.51 µM) | MIC against Clinical isolates Sensitive [1]: 0.25 to 0.5 mg/L

Cc1ccc(C(=O)CCC(=O)NC[C@H]2CN(c3ccc(N4CCOCC4)c(F)c3)C(=O)O2)c(C)c1 [Compound 25, (S)-N-[[3-(3-fluoro-4-morpholinylphenyl)-2-oxo-5-oxazolidinyl]methyl]-4-(2,4-dimethylphenyl)-4-oxobutanamide]
MIC against M. tuberculosis 27294 (M. tuberculosis 27294): 4 mg/L (≈ 8.27 µM) | MIC against Clinical isolates Sensitive [1]: 4 to 16 mg/L

CSc1ccc(C(=O)CCC(=O)NC[C@H]2CN(c3ccc(N4CCCC4)c(F)c3)C(=O)O2)cc1 [Compound 56, (S)-N-[[3-(3-fluoro-4-pyrrolidinylphenyl)-2-oxo-5-oxazolidinyl]methyl]-4-oxo-4-(4-thiomethylphenyl)butanamide]
MIC against M. tuberculosis 27294 (M. tuberculosis 27294): >16 mg/L | MIC against Clinical isolates Sensitive [1]: >16 mg/L

CC(=O)Nc1ccc(C(=O)CCC(=O)NC[C@H]2CN(c3ccc(N4CCCCC4)c(F)c3)C(=O)O2)cc1 [Compound 54, (S)-N-[[3-(3-fluoro-4-piperidylphenyl)-2-oxo-5-oxazolidinyl]methyl]-4-(4-acetamidophenyl)-4-oxobutanamide]
MIC against M. tuberculosis 27294 (M. tuberculosis 27294): 8 mg/L (≈ 15.7 µM) | MIC against Clinical isolates Sensitive [1]: 8 to 16 mg/L
